How the values were obtained:
Experiment in all cases: relative viability (nuclei count vs DMSO), 5 days (fraction); higher = more cells survive
[1] = compound: CN(c1ncccc1CNc1nc(Nc2ccc3c(c2)CC(=O)N3)ncc1C(F)(F)F)S(C)(=O)=O + CC1(C)CCC(c2ccc(Cl)cc2)=C(CN2CCN(c3ccc(C(=O)NS(=O)(=O)c4ccc(N[C@H](CCN5CCOCC5)CSc5ccccc5)c(S(=O)(=O)C(F)(F)F)c4)cc3)CC2)C1 [Navitoclax] (partner 0.5 µM)
Procedure, shortened: (§1)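 One day after seeding in 1536-well plates, lung cancer cell lines were dosed by pin tool. Dosing was either single-drug or a fixed anchor-drug dose plus five library-drug doses (not always all listed) in √10 steps. After 5 days, nuclei were stained in one fix-and-stain step and counted on 4× images, and relative viability is the nuclei count of treated wells over that of vehicle wells, given as the median of duplicate plates.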

[2] = compound: CN(c1ncccc1CNc1nc(Nc2ccc3c(c2)CC(=O)N3)ncc1C(F)(F)F)S(C)(=O)=O + Cc1cc(Nc2cc(N3CCN(C)CC3)nc(Sc3ccc(NC(=O)C4CC4)cc3)n2)n[nH]1 [Tozasertib] (partner 0.1 µM)
Procedure, shortened: as §1

[3] = compound: CN(c1ncccc1CNc1nc(Nc2ccc3c(c2)CC(=O)N3)ncc1C(F)(F)F)S(C)(=O)=O + C[C@@H](Oc1cc(-c2cnn(C3CCNCC3)c2)cnc1N)c1c(Cl)ccc(F)c1Cl [Crizotinib] (partner 1 µM)
Procedure, shortened: as §1

[4] = compound: CN(c1ncccc1CNc1nc(Nc2ccc3c(c2)CC(=O)N3)ncc1C(F)(F)F)S(C)(=O)=O + O=C(CCCCCCC(=O)Nc1ccccc1)NO [Vorinostat] (partner 1 µM)
Procedure, shortened: as §1

Cell Line | relative viability ([1]; first compound 0.01 µM) | relative viability ([1]; first compound 0.03162 µM) | relative viability ([1]; first compound 0.1 µM) | relative viability ([1]; first compound 0.3162 µM) | relative viability ([1]; first compound 1 µM) | relative viability ([2]; first compound 0.01 µM) | relative viability ([2]; first compound 0.03162 µM) | relative viability ([2]; first compound 0.1 µM) | relative viability ([2]; first compound 0.3162 µM) | relative viability ([2]; first compound 1 µM) | relative viability ([3]; first compound 0.01 µM) | relative viability ([3]; first compound 0.03162 µM) | relative viability ([3]; first compound 0.1 µM) | relative viability ([3]; first compound 0.3162 µM) | relative viability ([3]; first compound 1 µM) | relative viability ([4]; first compound 0.01 µM) | relative viability ([4]; first compound 0.03162 µM) | relative viability ([4]; first compound 0.1 µM) | relative viability ([4]; first compound 0.3162 µM) | relative viability ([4]; first compound 1 µM)
HCC-827 | 1.01 | 1 | 0.995 | 1.04 | 0.915 | 0.372 | 0.455 | 0.401 | 0.436 | 0.43 | 0.893 | 0.905 | 1 | 0.893 | 0.851 | 0.923 | 0.861 | 0.806 | 0.954 | 0.783
HCC-78 | 0.81 | 0.845 | 0.73 | 0.632 | 0.674 | 0.463 | 0.428 | 0.427 | 0.45 | 0.332 | 0.379 | 0.342 | 0.305 | 0.29 | 0.319 | 0.526 | 0.47 | 0.431 | 0.414 | 0.403
NCI-H2085 | 1.09 | 1.17 | 1.13 | 1.19 | 0.934 | 0.797 | 0.721 | 0.772 | 0.697 | 0.584 | 0.94 | 0.799 | 0.742 | 0.778 | 0.648 | 0.816 | 0.837 | 0.761 | 0.734 | 0.691
PC-14 | 1.02 | 1.16 | 1.03 | 1.01 | 1.04 | 0.531 | 0.705 | 0.54 | 0.59 | 0.52 | 0.874 | 0.858 | 1.04 | 0.872 | 0.765 | 0.75 | 0.764 | 0.692 | 0.811 | 0.653
NCI-H1648 | – | – | – | – | – | 0.433 | 0.36 | 0.317 | 0.386 | 0.407 | – | – | – | – | – | 0.336 | 0.493 | 0.471 | 0.292 | 0.413
A-427 | 0.999 | 0.973 | 1.02 | 0.973 | 0.945 | 0.223 | 0.191 | 0.207 | 0.186 | 0.211 | 0.916 | 0.964 | 0.951 | 0.783 | 0.725 | 0.892 | 0.874 | 0.878 | 0.903 | 0.859
H3255 | 0.606 | 0.518 | 0.616 | 0.475 | 0.35 | 0.808 | 0.599 | 0.775 | 0.571 | 0.51 | 0.945 | 1.03 | 0.832 | 0.663 | 0.839 | 0.881 | 0.931 | 0.767 | 0.796 | 0.743
HCC-44 | 0.977 | 1.15 | 0.951 | 0.905 | 0.756 | 1.02 | 0.926 | 0.94 | – | 0.804 | 0.876 | 0.893 | 0.798 | 0.788 | 0.749 | 1.1 | 1.06 | 1.13 | 1.14 | 1.1
NCI-H1734 | 0.894 | 0.937 | 0.824 | 0.866 | 0.707 | 0.239 | 0.273 | 0.27 | 0.269 | 0.258 | 0.684 | 0.734 | 0.752 | 0.656 | 0.618 | 0.809 | 0.818 | 0.799 | 0.8 | 0.781
NCI-H2228 | 0.732 | 1.18 | 0.783 | 0.755 | 0.741 | 0.271 | 0.243 | 0.249 | 0.239 | 0.207 | 0.408 | 0.516 | 0.39 | 0.47 | 0.402 | 0.42 | 0.579 | 0.758 | 0.882 | 0.547
ABC-1 | – | – | – | – | – | 0.173 | 0.161 | 0.158 | 0.137 | 0.172 | 1.12 | 1.21 | 1.09 | 1.15 | 1.17 | 1.02 | 0.948 | 1.28 | 1.11 | 1.27
NCI-H661 | – | – | – | – | – | 0.294 | 0.334 | 0.361 | 0.372 | 0.353 | 0.973 | 0.955 | 1.02 | 0.904 | 0.915 | 0.763 | 0.84 | 0.744 | 0.786 | 0.759
NCI-H358 | – | – | – | – | – | 0.0908 | 0.102 | 0.0923 | 0.103 | 0.0817 | 0.608 | 0.449 | 0.515 | 0.449 | 0.303 | 0.65 | 0.704 | 0.692 | 0.573 | 0.421
EBC-1 | 0.461 | 0.318 | 0.351 | 0.385 | 0.302 | – | – | – | – | – | 0.204 | 0.195 | 0.216 | 0.2 | 0.186 | – | – | – | – | –
NCI-H650 | – | – | – | – | – | 0.713 | 0.712 | 0.637 | 0.622 | 0.608 | 0.68 | 0.727 | 0.675 | 0.538 | 0.675 | 0.454 | 0.565 | 0.557 | 0.415 | 0.303
NCI-H1792 | 0.629 | 0.536 | 0.578 | 0.642 | 0.581 | – | – | – | – | – | 0.936 | 1.01 | 0.971 | 0.938 | 0.961 | – | – | – | – | –
A549 | 1.19 | 1.07 | 1.26 | 1.13 | 1.1 | – | – | – | – | – | 0.762 | 0.799 | 0.803 | 0.797 | 0.526 | – | – | – | – | –
NCI-H1703 | 0.951 | 1.12 | 1.03 | 1.11 | 1.02 | – | – | – | – | – | 0.586 | 0.678 | 1.15 | 0.986 | 0.417 | – | – | – | – | –
LCLC-103H | – | – | – | – | – | 0.469 | 0.457 | 0.414 | 0.415 | 0.466 | 1.14 | 1.08 | 1.11 | 0.906 | 0.895 | 0.852 | 0.725 | 0.732 | 0.771 | 0.769
NCI-H1563 | – | – | – | – | – | – | – | – | – | – | 0.855 | 0.83 | 0.91 | 0.864 | 0.799 | – | – | – | – | –
NCI-H1395 | 1.19 | 1.25 | 1.04 | 1.06 | 1.31 | 0.724 | 0.806 | 0.784 | 0.856 | 0.782 | – | – | – | – | – | 0.792 | 0.698 | 0.725 | 0.659 | 0.898

Source: the supplement of paper PMC10307832
